# Experimental data taken from patent publication US20230074545A1, “TREATMENT OF CANCER WITH CDK12/13 INHIBITORS” (Kinnate Biopharma Inc., priority 2019, published 2023).
# Like-named read-outs stand apart in the source and are kept apart here.
# Tests used:
# HCC70 cells = assay: HCC70 cell proliferation (CellTiter-Glo); format: cell-based; conditions: Homo sapiens, read-out: Inhibition of Proliferation of HCC70 Cells (IC50 in M)
# Experimental: HCC70 was the cell line used as a model of triple-negative breast cancer (TNBC). This cell line was obtained from ATCC and was initiated from a primary ductal carcinoma in 1992 (Catalog #CRL-2315; mammary gland primary ductal carcinoma). The HCC-70 tumor cell line was maintained in vitro as a monolayer culture in RPMI-1640 medium supplemented with 10% heat inactivated fetal bovine serum at 37° C. in an atmosphere of 5% CO2 in air.
# (§1) Representative compounds were tested at different concentrations (from 4 μM to 126.4 pM; 0.5 log serial dilutions) for their ability to inhibit the proliferation of HCC70 cells. Cells were grown in ATCC-formulated RPMI-1640 Medium (ATCC 30-2001)+10% FBS. The cells were cultured at 37° C. in a humidified chamber in the presence of 5% CO2. Proliferation assays were conducted over a 72 hour time period.
# (§2) Cells were cultured and maintained as described above, with cells always fed on the day prior to assay. Assays were run with a 2 hour compound exposure followed by a washout and then a 72 hour proliferation time or exposed to the test compounds for 72 hours with no washout of compound. DMSO was used as a control in all wells not receiving test compound and DMSO wells were used for plate normalization. Proliferation and survival of cells was quantified based on the amount of total ATP following cell lysis as determined by using a standard assay kit used according to manufacturer's instructions. Experiments were performed in the same media used by each cell type for growth and maintenance. Cells (5×10^4) were plated in 96 well plates for compound exposure. CellTiter-Glo® (Promega Corporation, Madison, Wis. USA) was used to assess the anti-proliferative effects of the compounds following manufacturer's directions and utilizing the reagents supplied with the CellTiter-Glo® kit.
# OVCAR-3 cells = assay: OVCAR-3 cell proliferation (CellTiter-Glo); format: cell-based; conditions: Homo sapiens, read-out: Inhibition of proliferation of OVCAR3 cells (IC50 in M)
# Source text: OVCAR-3 was used as the cell line to model for ovarian cancer in vitro and in vivo. This cell line was obtained from ATCC (Catalog #HTB-161) and is an adenocarcinoma line from the malignant ascites of a patient with progressive adenocarcinoma of the ovary and embodies a preclinical model of high-grade, serous ovarian cancer (HGSOC). OVCAR-3 has been deemed an appropriate model system in which to study drug resistance in ovarian cancer, and the presence of hormone receptors should be useful for the evaluation of hormonal therapy. OVCAR-3 is resistant to clinically relevant concentrations of adriamycin, melphalan and cisplatin.
# as §1, with “Compounds 1-5” for “Representative compounds”, “OVCAR-3” for “HCC70”
# as §2
# CDK2 = molecular target: T1, CDK2 (Homo sapiens, UniProt P24941); assay: Radiometric kinase assay (33PanQinase); format: biochemical; conditions: read-out: Inhibition of CDK Activity (molar inhibition in a radiometric assay)
# T1 construct: either as full-length or enzymatically active fragments; purchased ProQinase GmbH (Reaction Biology); host or cells: Sf9 insect cells or E. coli
# Experimental: (§3) The compounds 1-5 (see Table 1) were assayed for kinase activity at ProQinase (ProQinase GmbH, Reaction Biology; Freiburg, Germany) using their commercially available radiometric kinase assay services. Briefly, the compounds were provided as solids and were dissolved to 1×10^−03 M/100% DMSO stock solutions on the day of assay. All protein kinases were provided by ProQinase and were expressed in Sf9 insect cells or in E. coli as recombinant GST-fusion proteins or His-tagged proteins, either as full-length or enzymatically active fragments. All kinases were produced from human cDNAs and purified by either GSH-affinity chromatography or immobilized metal. The purity of the protein kinases was examined by SDS-PAGE/Coomassie staining, the identity was checked by mass spectroscopy. A radiometric protein kinase assay (^33PanQinase® Activity Assay) was used for measuring the kinase activity of the protein kinase. All kinase assays were performed in 96-well FlashPlates™ from PerkinElmer (Boston, Mass., USA) in a 50 microliter reaction volume. The reaction cocktail was pipetted in four steps in the following order: 1) 25 microliter of assay buffer (standard buffer/[gamma-^33P]-ATP); 2) 10 microliter of ATP solution (in H2O); 3) 5 microliter of test compound (in 10% DMSO); 4) 10 microliter of enzyme/substrate mixture.
# (§4) As a parameter for assay quality, the Z′-factor (Zhang et al., J. Biomol. Screen. 2: 67-73, 1999) for the low and high controls of each assay plate (n=8) was used. ProQinase's criterion for repetition of an assay plate is a Z′-factor below 0.4.
# CDK9 = molecular target: T2, CDK9 (Homo sapiens, UniProt P50750); assay: Radiometric kinase assay (33PanQinase); format: biochemical; conditions: read-out: Inhibition of CDK Activity (molar inhibition in a radiometric assay)
# T2 construct: either as full-length or enzymatically active fragments; purchased ProQinase GmbH (Reaction Biology); host or cells: Sf9 insect cells or E. coli
# Experimental: as §3, §4
# CDK12 = molecular target: T3, CDK12 (Homo sapiens, UniProt Q9NYV4); assay: Radiometric kinase assay (33PanQinase); format: biochemical; conditions: read-out: Inhibition of CDK Activity (molar inhibition in a radiometric assay)
# T3 construct: either as full-length or enzymatically active fragments; purchased ProQinase GmbH (Reaction Biology)
# Experimental: as §3, §4
# CDK7 = molecular target: T4, CDK7 (Homo sapiens, UniProt P50613); assay: Radiometric kinase assay (33PanQinase); format: biochemical; conditions: read-out: Inhibition of CDK Activity (molar inhibition in a radiometric assay)
# T4 construct: either as full-length or enzymatically active fragments; purchased ProQinase GmbH (Reaction Biology); host or cells: Sf9 insect cells or E. coli
# Experimental: as §3, §4
# CDK13 = molecular target: T5, CDK13 (Homo sapiens, UniProt Q14004); assay: Radiometric kinase assay (33PanQinase); format: biochemical; conditions: read-out: Inhibition of CDK Activity (molar inhibition in a radiometric assay)
# T5 construct: either as full-length or enzymatically active fragments; purchased ProQinase GmbH (Reaction Biology)
# Experimental: as §3, §4
# RNA polymerase II [1] = assay: Phosphorylation of RNA polymerase II (pS2/S2) in HCC70 xenograft; format: in vivo, CB-17 SCID mice; conditions: intravenous
# Experimental: The ability of compound 4 and compound 5 to inhibit phosphorylation of RNA polymerase II at the S2 unit was analyzed in a mouse xenograft model of triple-negative breast cancer. CB-17 SCID mice were inoculated with the HCC70 cells as the in vivo model for triple negative breast cancer. Each mouse was inoculated subcutaneously on the right flank with HCC70 tumor cells (5×106) in 0.1 mL of RPMI-1640 Medium and Matrigel mixture (1:1 ratio) for tumor development. The treatment started when the mean tumor size reached approximately 100-150 mm^3. Mice were treated intravenously with vehicle only, 20 mg/kg of compound 4, 25 mg/kg of compound 4, 10 mg/kg of compound 5, or 25 mg/kg of compound 5 for 2 hours. Measurements were taken at 0.5 hours, 6 hours and 24 hours after the dose. The amount of phosphorylated RNA polymerase II and the total amount of RNA polymerase II was analyzed. The values were normalized by taking the ratio of the phosphorylated RNA polymerase II to the total RNA polymerase II (pS2/S2).
# RNA polymerase II [2] = assay: Inhibition of phosphorylation of RNA polymerase II in NCI-H82 cells; format: cell-based; conditions: Homo sapiens, 2 hours, phosphorylated/total RNA polymerase II
# Experimental: CDK12 and CDK13 phosphorylate RNA polymerase II. The ability of compound 1 to inhibit phosphorylation of RNA polymerase II was analyzed in NCI-H82 cells. 200,000 cells were plated in each well of a 96 well MSD plate. Cells were treated with compound 1, THZ531 (a positive control), or E9 at concentrations between 4 μM to 126.4 pM (0.5 log serial dilutions) for 2 hours. THZ531 and E9 are further discussed in Gao et al, Cell Chemical Biology 2017. The amount of phosphorylated RNA polymerase II and the total amount of RNA polymerase II was analyzed using antibodies. The values were normalized by taking the ratio of the phosphorylated RNA polymerase II to the total RNA polymerase II. As depicted in FIG. 3A (THZ531), FIG. 3B (Compound 1), and Table 6, increasing the concentration of compound 1 results in a dose-specific increase in the inhibition of phosphorylation of RNA polymerase II.
# [3] = HCC70 (no washout), exposed for 72 hours
# [4] = HCC70 (w/washout), 2 hour exposure, washout, 72 hour proliferation
# [5] = OVCAR-3 (no washout), exposed for 72 hours
# [6] = OVCAR-3 (w/washout), 2 hour exposure, washout, 72 hour proliferation
# T3 sequence (Q9NYV4 whole entry, the tested form may be a part): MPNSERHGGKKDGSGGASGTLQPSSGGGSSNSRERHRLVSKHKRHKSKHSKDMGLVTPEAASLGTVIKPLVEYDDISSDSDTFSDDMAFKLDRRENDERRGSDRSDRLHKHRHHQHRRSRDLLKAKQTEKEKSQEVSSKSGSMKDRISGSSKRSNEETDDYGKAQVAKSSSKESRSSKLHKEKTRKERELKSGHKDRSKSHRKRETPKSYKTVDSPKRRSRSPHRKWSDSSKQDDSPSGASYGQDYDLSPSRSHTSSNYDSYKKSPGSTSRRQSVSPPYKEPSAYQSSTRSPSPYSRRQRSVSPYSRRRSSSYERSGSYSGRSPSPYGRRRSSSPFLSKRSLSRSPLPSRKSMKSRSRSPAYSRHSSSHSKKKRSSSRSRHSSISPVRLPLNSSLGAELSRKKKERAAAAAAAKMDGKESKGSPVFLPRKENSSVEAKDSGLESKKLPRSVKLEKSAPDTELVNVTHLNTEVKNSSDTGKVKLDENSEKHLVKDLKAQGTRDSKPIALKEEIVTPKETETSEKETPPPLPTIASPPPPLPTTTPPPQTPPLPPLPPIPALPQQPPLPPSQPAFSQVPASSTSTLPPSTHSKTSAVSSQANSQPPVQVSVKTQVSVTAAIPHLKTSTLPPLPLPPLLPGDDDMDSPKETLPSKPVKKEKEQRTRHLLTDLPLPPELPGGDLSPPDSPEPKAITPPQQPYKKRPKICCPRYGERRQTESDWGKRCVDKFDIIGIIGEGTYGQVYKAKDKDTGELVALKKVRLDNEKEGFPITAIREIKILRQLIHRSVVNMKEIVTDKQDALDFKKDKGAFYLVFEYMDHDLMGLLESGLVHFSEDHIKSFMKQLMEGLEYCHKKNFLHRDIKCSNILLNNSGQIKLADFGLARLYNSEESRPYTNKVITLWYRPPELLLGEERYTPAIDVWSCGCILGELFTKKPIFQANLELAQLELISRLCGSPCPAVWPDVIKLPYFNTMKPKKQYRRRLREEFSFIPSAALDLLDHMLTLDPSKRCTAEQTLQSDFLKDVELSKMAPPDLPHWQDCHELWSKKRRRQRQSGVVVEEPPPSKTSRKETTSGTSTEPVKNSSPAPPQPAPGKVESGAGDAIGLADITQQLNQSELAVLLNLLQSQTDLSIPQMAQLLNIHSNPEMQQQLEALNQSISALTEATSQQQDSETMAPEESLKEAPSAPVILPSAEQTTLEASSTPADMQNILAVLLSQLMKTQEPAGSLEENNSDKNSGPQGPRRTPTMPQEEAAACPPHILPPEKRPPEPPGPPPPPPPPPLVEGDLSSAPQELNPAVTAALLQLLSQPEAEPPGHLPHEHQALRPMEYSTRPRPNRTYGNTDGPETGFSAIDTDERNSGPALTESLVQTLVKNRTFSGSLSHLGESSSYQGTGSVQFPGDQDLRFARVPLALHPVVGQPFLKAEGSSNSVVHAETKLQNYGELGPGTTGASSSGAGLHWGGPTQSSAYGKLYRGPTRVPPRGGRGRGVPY
# T3 sequence (O75909 whole entry partner, the tested form may be a part): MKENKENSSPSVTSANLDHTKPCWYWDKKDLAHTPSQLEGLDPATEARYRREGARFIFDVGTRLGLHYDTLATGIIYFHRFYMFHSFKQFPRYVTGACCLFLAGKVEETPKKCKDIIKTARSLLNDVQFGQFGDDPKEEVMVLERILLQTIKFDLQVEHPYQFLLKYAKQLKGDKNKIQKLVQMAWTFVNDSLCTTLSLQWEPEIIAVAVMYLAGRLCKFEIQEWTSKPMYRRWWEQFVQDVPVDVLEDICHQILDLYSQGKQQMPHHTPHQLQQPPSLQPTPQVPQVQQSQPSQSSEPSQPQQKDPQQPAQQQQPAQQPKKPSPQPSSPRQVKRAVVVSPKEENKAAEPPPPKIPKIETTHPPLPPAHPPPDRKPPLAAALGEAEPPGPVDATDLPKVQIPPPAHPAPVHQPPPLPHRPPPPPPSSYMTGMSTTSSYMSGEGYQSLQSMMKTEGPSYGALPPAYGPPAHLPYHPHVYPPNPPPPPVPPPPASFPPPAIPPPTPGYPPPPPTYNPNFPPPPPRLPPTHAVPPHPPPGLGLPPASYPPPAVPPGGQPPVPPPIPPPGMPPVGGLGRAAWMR
# T4 sequence (P50613 whole entry, the tested form may be a part): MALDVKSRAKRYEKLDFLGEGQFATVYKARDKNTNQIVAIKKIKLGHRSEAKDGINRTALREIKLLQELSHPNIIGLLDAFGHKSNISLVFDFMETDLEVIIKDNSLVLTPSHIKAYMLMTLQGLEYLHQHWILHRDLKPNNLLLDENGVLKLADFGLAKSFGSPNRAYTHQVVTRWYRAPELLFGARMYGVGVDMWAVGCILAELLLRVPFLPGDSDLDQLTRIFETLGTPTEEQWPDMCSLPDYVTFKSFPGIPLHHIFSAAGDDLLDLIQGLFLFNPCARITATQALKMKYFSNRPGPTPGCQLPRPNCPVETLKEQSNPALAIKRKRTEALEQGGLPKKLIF
# T4 sequence (P51946 whole entry partner, the tested form may be a part): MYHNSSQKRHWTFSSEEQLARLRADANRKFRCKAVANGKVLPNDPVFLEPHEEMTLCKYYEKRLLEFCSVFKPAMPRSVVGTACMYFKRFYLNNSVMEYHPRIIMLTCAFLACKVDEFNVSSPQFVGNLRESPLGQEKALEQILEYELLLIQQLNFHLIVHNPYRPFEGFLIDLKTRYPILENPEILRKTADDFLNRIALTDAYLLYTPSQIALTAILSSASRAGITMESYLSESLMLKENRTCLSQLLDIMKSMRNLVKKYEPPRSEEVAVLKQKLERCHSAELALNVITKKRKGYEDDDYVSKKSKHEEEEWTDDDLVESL
# T4 sequence (P51948 whole entry partner, the tested form may be a part): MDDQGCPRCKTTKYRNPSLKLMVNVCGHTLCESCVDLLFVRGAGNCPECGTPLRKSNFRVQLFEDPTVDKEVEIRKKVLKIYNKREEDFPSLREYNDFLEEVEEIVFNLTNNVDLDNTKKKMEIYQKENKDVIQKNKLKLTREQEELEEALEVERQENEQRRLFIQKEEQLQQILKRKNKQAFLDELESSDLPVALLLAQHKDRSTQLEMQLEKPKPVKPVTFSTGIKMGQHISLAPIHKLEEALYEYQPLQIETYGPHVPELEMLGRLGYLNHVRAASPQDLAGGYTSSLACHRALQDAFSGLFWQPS
# T5 sequence (Q14004 whole entry, the tested form may be a part): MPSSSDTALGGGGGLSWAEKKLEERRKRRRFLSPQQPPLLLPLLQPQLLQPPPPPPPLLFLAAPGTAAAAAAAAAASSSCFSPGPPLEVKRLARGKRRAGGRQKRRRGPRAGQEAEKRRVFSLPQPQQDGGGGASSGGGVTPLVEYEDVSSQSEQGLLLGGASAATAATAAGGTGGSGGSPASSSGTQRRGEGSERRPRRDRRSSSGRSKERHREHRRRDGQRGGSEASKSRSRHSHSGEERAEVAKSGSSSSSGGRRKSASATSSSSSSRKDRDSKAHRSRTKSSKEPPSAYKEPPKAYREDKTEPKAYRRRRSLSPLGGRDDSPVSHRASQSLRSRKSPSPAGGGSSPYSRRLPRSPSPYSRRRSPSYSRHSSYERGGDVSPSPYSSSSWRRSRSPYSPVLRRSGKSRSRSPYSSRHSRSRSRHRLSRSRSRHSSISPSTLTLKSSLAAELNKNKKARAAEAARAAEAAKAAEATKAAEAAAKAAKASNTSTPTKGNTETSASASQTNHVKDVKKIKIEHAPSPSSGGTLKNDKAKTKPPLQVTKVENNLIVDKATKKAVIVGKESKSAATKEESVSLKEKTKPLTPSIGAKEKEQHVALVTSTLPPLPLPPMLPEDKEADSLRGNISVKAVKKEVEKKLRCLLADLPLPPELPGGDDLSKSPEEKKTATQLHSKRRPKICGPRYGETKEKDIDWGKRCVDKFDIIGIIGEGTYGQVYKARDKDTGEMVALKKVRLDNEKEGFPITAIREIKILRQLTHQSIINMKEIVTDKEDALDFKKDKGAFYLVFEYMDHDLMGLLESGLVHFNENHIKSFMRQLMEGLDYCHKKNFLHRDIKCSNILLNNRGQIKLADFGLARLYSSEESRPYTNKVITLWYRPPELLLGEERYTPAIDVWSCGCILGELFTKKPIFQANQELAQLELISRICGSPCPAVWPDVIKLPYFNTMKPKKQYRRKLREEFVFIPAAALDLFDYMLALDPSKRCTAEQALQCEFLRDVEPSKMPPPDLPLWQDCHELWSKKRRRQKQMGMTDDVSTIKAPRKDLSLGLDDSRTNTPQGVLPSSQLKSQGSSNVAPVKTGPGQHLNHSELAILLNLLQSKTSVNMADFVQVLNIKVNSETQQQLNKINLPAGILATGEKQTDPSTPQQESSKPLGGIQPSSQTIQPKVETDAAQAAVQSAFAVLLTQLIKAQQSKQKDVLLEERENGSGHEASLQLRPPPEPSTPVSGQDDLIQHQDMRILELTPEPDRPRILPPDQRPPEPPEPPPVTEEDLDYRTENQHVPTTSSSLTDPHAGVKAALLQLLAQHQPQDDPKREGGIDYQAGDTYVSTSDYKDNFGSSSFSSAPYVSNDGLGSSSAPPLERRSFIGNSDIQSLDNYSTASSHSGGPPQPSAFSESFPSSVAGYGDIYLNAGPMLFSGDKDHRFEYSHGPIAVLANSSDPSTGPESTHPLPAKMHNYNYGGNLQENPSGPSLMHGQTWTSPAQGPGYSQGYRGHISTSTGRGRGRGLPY
# T5 sequence (O75909 whole entry partner, the tested form may be a part): as the sequence (O75909 whole entry partner, the tested form may be a part) above
Compound,IC50 (HCC70 cells; [3]) [nM],IC50 (HCC70 cells; [4]) [nM],IC50 (OVCAR-3 cells; [5]) [nM],IC50 (CDK2) [nM],IC50 (CDK9) [nM],IC50 (CDK12) [nM],IC50 (CDK7) [nM],IC50 (CDK13) [nM],"decrease in the pS2/S2 ratio, 25 mg/kg versus 10 mg/kg (RNA polymerase II [1]; all time points (0.5, 6, 24 hours))","pS2/S2 compared to treatment with the vehicle alone (RNA polymerase II [1]; compound 4 20 or 25 mg/kg, compound 5 10 or 25 mg/kg, 0.5, 6 and 24 hours after the dose)",IC50 (OVCAR-3 cells; [6]) [nM],IC50 (RNA polymerase II [2]) [nM]
"C=CC(=O)N(C)c1ccc(C(=O)N2CC[C@@H](Nc3ncc(Cl)c(OC)n3)C2)cc1 [Compound 2, (R)-N-(4-(3-((5-chloro-4-methoxypyrimidin-2-yl)amino)pyrrolidine-1-carbonyl)phenyl)-N-methylacrylamide]",11.3,38,7.63,11300,1320,54.4,518,324,–,–,–,–
"C#Cc1cnc(N[C@@H]2CCN(C(=O)c3ccc(NC(=O)C=C)cc3)C2)nc1 [Compound 5, (R)-N-(4-(3-((5-ethynylpyrimidin-2-yl)amino)pyrrolidine-1-carbonyl)phenyl)acrylamide]",19.3,82.1,10.1,3370,1370,59.3,3770,104,greater decrease,reduced the pS2/S2 at all time points,103,–
"CN(C)C/C=C/C(=O)Nc1ccc(C(=O)N2CCC[C@@H](Nc3ncc(Cl)c(-c4c[nH]c5ccccc45)n3)C2)cc1 [THZ531, reference compound]",–,–,–,–,–,–,–,–,–,–,–,312
"C=CC(=O)Nc1ccc(C(=O)N2CC[C@@H](Nc3ncc(Cl)cn3)C2)cc1 [Compound 3, (R)-N-(4-(3-((5-chloropyrimidin-2-yl)amino)pyrrolidine-1-carbonyl)phenyl)acrylamide]",10.1,110,7.45,7930,1170,96.7,2790,379,–,–,33.7,–
